{"source": "patent US11298354B2", "about": "“Methods of use and pharmaceutical combinations of HDAC inhibitors with BET inhibitors” (DANA-FARBER CANCER INSTITUTE, INC., priority 2016, dated 2022)", "key": {"[1]": {"system": "peripheral blood mononuclear cells (PBMCs) from healthy donors", "assay": "Healthy donor PBMCs cultured with HDAC inhibitors, FACS", "format": "cell-based, human", "conditions": "for percentage of CD4+FOXP3+ Tregs within PBMCs: FIG. 1C", "source_text": "HDAC inhibition results in tumor growth arrest in immunocompetent animal models. The effects of class I and class II HDAC inhibition on leukocytes were investigated using peripheral blood mononuclear cells (PBMCs) obtained from healthy donors."}, "[2]": {"system": "lung adenocarcinomas of KP mice", "assay": "Long-term efficacy study in KP mice", "conditions": "I.P. once daily, MRI, FIG. 6 and 8A", "experimental": "Tumor growth was monitored weekly by MRI.\nFor lung tumor induction, mice received 1×10^6 cfu cre-encoding adenovirus intranasally at 5-6 weeks of age. Tumor formation (typically 6-8 weeks post inoculation) and volume was confirmed by MRI and was quantified using the 3D-slicer software. […] All mice were maintained under specific pathogen-free conditions.\nJQ1 was formulated in 10% DMSO and 90% of 10% 2-hydroxylpropyl β-cyclodextrin (Sigma), and was administrated to mice at 25 mg/kg I.P. daily. Vehicle control was prepared by diluting DMSO into the related drug vehicle. […] Depletion of relevant cell types was confirmed by flow cytometry one day after the second dose using peripheral blood obtained from the tail vein."}, "[3]": {"system": "CD3+CD4+CD25hi Treg cells from spleen of wild-type mice", "assay": "Mouse splenic T cells and Tregs cultured with JQ1", "format": "cell-based", "source_text": "A combination treatment with an HDAC6 selective inhibitor and a complementary immunomodulatory agent can achieve greater levels of immune-based control of tumor growth in these NSCLC models. JQ1 was previously shown to have an anti-tumor effect in KP mice in part due to downregulation of MYC and induction of apoptosis in tumor cells. […] T cells were isolated from the spleen of wild-type mice and sorted into CD3+CD25− (T cells) or CD3+CD4+CD25hi (Treg) subsets and subsequently cultured in the presence or absence of JQ1 (1 μM). Cultures were supplemented with 100 IU/mL of recombinant IL-2. Cells were washed after two days of culture and their phenotype was evaluated by FACS. For the CSFE dilution shown in FIG. 7C, 2×10^5 CFSE-labelled purified T cells obtained from the spleen of naïve mice were co-cultured with 1.0×10^5 mitomycin C treated, T-depleted spleen cells which served as APCs. 0.5 μg of soluble anti-CD3 was then added to each well along with graded numbers of Tregs (indicated by Treg:T cell ratios)."}, "[4]": {"system": "lung adenocarcinomas of KP mice", "assay": "Immune profiling of KP tumor nodules after 4-6 weeks of treatment", "format": "in vivo, mouse", "method": "For immune profiling, cohorts of mice were sacrificed after 4-6 weeks of treatment and tumor cell suspensions were subjected to FACS analysis. […] In addition, immune cells isolated from tumors of mice treated with indicated drugs were stimulated ex-vivo for 6 hours in the presence of golgi plug. […] Equivalent numbers of each of these populations were co-cultured for two days in the presence of tumor cell lysate.\n(§1) After incubation, cells were treated with red blood cell lysis buffer and were filtered through a 70 μm cell strainer. After centrifugation, cell pellet was re-suspended in 1×PBS/2% FBS. Cells were counted, and ˜0.5-1×10^6 cells were stained for surface markers in PBS+2% FBS for 15 minutes at 4° C. Intracellular staining was performed for Foxp3, Ki67, CTLA-4, and Bcl-2, using the Foxp3 staining buffer according to the manufacturer's instructions while the cytofix/cytoperm kit (BD Bioscience) was used for intracellular cytokine staining. Briefly, cells were stained for surface markers including CD4, CD8, CD3, followed by intracellular staining with PE-conjμgated anti-IFN-γ, BV421-conj μgated anti-TNF-α, APC-conjugated IL-2, FITC-conjugated Perforin and CD107a (where indicated), or isotype-matched mAbs after permeabilization and fixation. In all stained samples, dead cells were excluded using Live/Dead Fixable dead cell staining kit (Invitrogen). Cells were acquired on the LSR Fortessa (BD Biosciences) and were analyzed with the flowjo software (Treestar).\n(§2) For intracellular cytokine detection assays, immune cells from tumors of treated or control mice were obtained after ficoll gradient separation as previously described. 1×10^6 cells were cultured with PMA (50 ng) and Ionomycin (500 ng) for 6 hours at 37° C., and GolgiPlμg (BD Pharmingen) was added for the last 5 hours of culture. For equivalent assays utilizing human PBMCs, 0.5×10^6 cells were similarly stimulated prior to analysis."}, "[5]": {"system": "PBMCs obtained from non-small cell lung cancer (NSCLC) patients", "assay": "NSCLC patient PBMCs cultured with Compound A or entinostat, FACS", "conditions": "for expression of CD86 on CD14+ monocytes / expression of MHC class II molecules on CD14+ monocytes: 24-hour culture, FIG. 4A; for expression of CD69 activation marker on conventional CD8+ and CD4+ T cells: patient PBMC cultures, FIG. 3A, 3B", "text": "Specifically, the phenotype of CD14+CD11b+ monocytes in the peripheral blood of healthy subjects and NSCLC patients, or that of CD14-CD68+CD11b+ macrophages within disaggregated NSCLC tumors were investigated. […] Peripheral blood mononuclear cells (PBMCs) were isolated by Ficoll gradient from fresh or frozen blood samples obtained from healthy donors and consented patients under IRB-approved institutional protocols. […] Cells were then washed and were subjected to phenotypic analysis by FACS. In some experiments, these cultures were performed with purified CD14+ monocytes or CD3+ T cells after purifications from whole PBMCs."}, "[6]": {"system": "lung adenocarcinomas of KP and TL mice", "assay": "7-day treatment of KP and TL lung adenocarcinoma mice, tumor immune profiling", "format": "in vivo, mouse", "source_text": "Tumor-associated immune cells are important in shaping the course of tumor progression and anti-tumor immunity. The effects of an HDAC6 selective inhibitor on phenotypic and functional changes, especially in the context of tumor antigens, were investigated. Specifically, the effects of an HDAC6 selective inhibitor on immune cells infiltrating lung adenocarcinomas that spontaneously develop in fully immunocompetent genetically engineered mice harboring activating Kras^G12D mutation and concurrent p53 loss (designated as KP), or those with T790M/L858R EGFR mutations (designated TL) were studied. […] Single cell suspensions of lung tumor nodules were generated and subjected to FACS analysis to assess the proportions, phenotype and function of CD45+ immune cell subsets in the tumors isolated from both KP and TL mice.\nMice with existing adenocarcinomas were treated once daily with Compound A for seven days prior to evaluation of dissociated tumors by comprehensive multi-parameter flow cytometry. […] Such increases in the CD8:Treg ratios are often associated with enhanced anti-tumor response. […]\nas §1, §2\nTumor-associated macrophages (TAMs; CD45+CD11c+CD11b^lo) and CD45+CD3+CD25^lo/− T cells were sorted into 96-well plates containing 50 μl of 1×PBS with Recombinant Ribonuclease Inhibitor (Life Technologies) isolated from tumor tissues by FACS sorting. Briefly, tumor cell suspensions were incubated with live/dead fixable dye after FcγR blocking and subsequently stained with antibodies against CD45, CD3, CD8, CD11b, and CD11c. Smart-Seq2 libraries were prepared by the Broad Technology Labs and sequenced by the Broad Genomics Platform."}, "[7]": {"conditions": "current clinical trials of hematologic cancers; cited from earlier work"}, "[8]": {"system": "CD14+ monocytes from patient PBMCs / allogeneic T cells", "assay": "Mixed lymphocyte reaction with drug-exposed CD14+ monocytes", "conditions": "monocytes cultured 24 hours with drug, 6 days co-culture, FIG. 4D", "text": "For T cell proliferation assays, T cells were isolated from PBMCs by positive selection using T cell enrichment kit (Miltenyi Biotec) following the manufacturer's instructions. Cells were typically ˜90% pure. […] Cells were washed three times with RPMI+10% FBS, were counted, and were used as responder cells."}, "[9]": {"system": "single cell suspensions from dissociated freshly resected NSCLC tumors", "assay": "Dissociated NSCLC patient tumor cell cultures, FACS", "format": "cell-based, human", "conditions": "2-D tumor cell cultures, FIG. 4B", "source_text": "DMSO was used as a control."}, "[10]": {"conditions": "JQ1 1 μM, two days of culture, FIG. 7B"}, "[11]": {"conditions": "KP and TL mice, 7 days, FIG. 5K-5M"}, "[12]": {"conditions": "KP and TL mice, once daily for seven days, FIG. 5A-5B"}, "[13]": {"conditions": "PBMCs from healthy donors, FIG. 4C"}}, "data": [{"smiles": "O=C(NO)c1cnc(NC2(c3cccc(F)c3)CCCCC2)nc1", "note": "[Compound C, 2-((1-(3-fluorophenyl)cyclohexyl)amino)-N-hydroxypyrimidine-5-carboxamide]", "values": [{"measurement": "percentage of CD4+FOXP3+ Tregs within PBMCs", "setting": "[1]; healthy donor PBMCs, 24 hours", "value": "did not significantly impact"}]}, {"smiles": "Cc1sc2c(c1C)C(c1ccc(Cl)cc1)=NC(CC(=O)OC(C)(C)C)c1nnc(C)n1-2", "note": "(stereo not drawn) [JQ1]", "values": [{"measurement": "tumor growth", "setting": "[2]", "value": "moderate"}, {"measurement": "suppressive function of Tregs vs unexposed counterparts", "setting": "[3]; CFSE dilution, FIG. 7C", "value": "less suppressive"}, {"measurement": "expression levels of Foxp3 on Tregs", "setting": "[3]; [10]", "value": "diminished expression levels"}, {"measurement": "expression levels of PD-1 on Tregs", "setting": "[3]; [10]", "value": "diminished expression levels"}, {"measurement": "Treg fractions/proportions in tumors", "setting": "[4]; 4-6 weeks, FIG. 9B", "value": "more substantial reduction"}]}, {"smiles": "Nc1ccccc1NC(=O)c1ccc(CNC(=O)OCc2cccnc2)cc1", "note": "[Entinostat, entinostat, reference compound]", "values": [{"measurement": "expression of CD86 on CD14+ monocytes", "setting": "[5]", "value": "neither addition of DMSO nor entinostat up-regulated"}, {"measurement": "expression of MHC class II molecules on CD14+ monocytes", "setting": "[5]", "value": "neither addition of DMSO nor entinostat up-regulated"}, {"measurement": "expression of CD69 activation marker on conventional CD8+ and CD4+ T cells", "setting": "[5]", "value": "not"}, {"measurement": "percentage of CD4+FOXP3+ Tregs within PBMCs", "setting": "[1]; healthy donor PBMCs, 24 hours", "value": "effect was still present"}]}, {"smiles": "CN1CCc2c(c3ccccc3n2Cc2ccc(C(=O)NO)cc2)C1", "note": "[Tubastatin, Tubastatin A, reference compound]", "values": [{"measurement": "percentage of CD4+FOXP3+ Tregs within PBMCs", "setting": "[1]; healthy donor PBMCs, 24 hours", "value": "did not significantly impact"}]}, {"smiles": "O=C(NO)c1cnc(NC2(c3ccccc3)CC2)nc1", "note": "[Compound D, N-hydroxy-2-((1-phenylcyclopropyl)amino)pyrimidine-5-carboxamide]", "values": [{"measurement": "percentage of CD4+FOXP3+ Tregs within PBMCs", "setting": "[1]; healthy donor PBMCs, 24 hours", "value": "effect was still present"}]}, {"smiles": "O=C(CCCCCCNC(=O)c1cnc(N(c2ccccc2)c2ccccc2)nc1)NO", "note": "[Compound A, 2-(diphenylamino)-N-(7-(hydroxyamino)-7-oxoheptyl)pyrimidine-5-carboxamide]", "values": [{"measurement": "tumor growth", "setting": "[2]", "value": "marginal delay"}, {"measurement": "expression levels of CD86 on CD11c+CD11b lo tumor-associated macrophages", "setting": "[6]; [11]", "value": "significantly elevated expression levels"}, {"measurement": "expression levels of MHC class II on CD11c+CD11b lo tumor-associated macrophages", "setting": "[6]; [11]", "value": "significantly elevated expression levels"}, {"measurement": "CD4+Foxp3+ Treg cells among lymphoid cells", "setting": "[6]; [12]", "value": "significant decreases"}, {"measurement": "frequency of tumor-infiltrating CD8+ T cells", "setting": "[6]; [12]", "value": "modest increases"}, {"measurement": "genes associated with T cell activation and effector function (Cd69, Sell, Cd44, Prf1) in tumor-infiltrating T cells", "setting": "[6]; KP mice, single cell RNA-Seq, vs vehicle, FIG. 5N", "value": "up-regulated"}, {"measurement": "inhibitory receptor molecule expression on tumor-infiltrating T cells", "setting": "[6]; PD-1, CTLA-4, TIM3, seven days, FIG. 5D-5G", "value": "no substantial phenotypic changes"}, {"measurement": "secretion of IFN-γ and TNF-α by tumor-infiltrating CD8+ T cells", "setting": "[6]; ex-vivo stimulation, vs vehicle, FIG. 5H", "value": "enhanced capacity to secrete"}, {"measurement": "CD69 activation marker on tumor-infiltrating CD8+ T cells", "setting": "[6]; seven days treatment, vs vehicle, FIG. 5H", "value": "increased expression levels"}, {"measurement": "expression of genes associated with MHC class II (Cd74, H2-Aa) in TAMs", "setting": "[6]; single cell RNA-Sequencing, vs control mice, FIG. 5N", "value": "higher expression"}, {"measurement": "safety profile", "setting": "[7]", "value": "favorable safety profile"}, {"measurement": "induction of allogeneic T cell proliferative responses by exposed CD14+ monocytes", "setting": "[8]", "value": "superior"}, {"measurement": "MHC class II molecules on TAMs", "setting": "[4]; FIG. 9G", "value": "markedly promoted the up-regulation"}, {"measurement": "CD86 on TAMs", "setting": "[4]; FIG. 9H", "value": "markedly promoted the up-regulation"}, {"measurement": "expression of CD86 on CD14+ monocytes", "setting": "[5]", "value": "up-regulated"}, {"measurement": "expression of MHC class II molecules on CD14+ monocytes", "setting": "[5]", "value": "up-regulated"}, {"measurement": "expression of CD69 activation marker on conventional CD8+ and CD4+ T cells", "setting": "[5]", "value": "substantially up-regulated"}, {"measurement": "expression of CD86 on CD14-CD68+CD11b+ macrophages", "setting": "[9]", "value": "increased expression"}, {"measurement": "expression of MHC class II on CD14-CD68+CD11b+ macrophages", "setting": "[9]", "value": "increased expression"}, {"measurement": "expression of CD86 on monocytes", "setting": "[1]; [13]", "value": "increased expression"}, {"measurement": "expression of MHC class II on monocytes", "setting": "[1]; [13]", "value": "increased expression"}, {"measurement": "expression of CD69 activation marker on conventional CD8+ and CD4+ T cells", "setting": "[1]; healthy donor PBMC cultures, 24 hours, FIG. 3C, 3D", "value": "substantially up-regulated"}, {"measurement": "percentage of CD4+FOXP3+ Tregs within PBMCs", "setting": "[1]; healthy donor PBMCs, 24 hours", "value": "reduced most significantly"}, {"measurement": "phospho-STAT3 expression on T cells", "setting": "[1]; healthy donor PBMCs, FIG. 3E", "value": "increase"}]}, {"smiles": "O=C(CCCCCCNC(=O)c1cnc(N(c2ccccc2)c2ccccc2Cl)nc1)NO", "note": "[Compound B, 2-((2-chlorophenyl)(phenyl)amino)-N-(7-(hydroxyamino)-7-oxoheptyl)pyrimidine-5-carboxamide]", "values": [{"measurement": "activation of CD8 T cells (CD69 activation marker)", "setting": "[6]; KP mice, 7 days, FIG. 5I", "value": "increased activation"}, {"measurement": "expression of MHCII on tumor associated macrophages", "setting": "[6]; KP mice, 7 days, FIG. 5I", "value": "increased expression"}, {"measurement": "percentage of CD4+FOXP3+ Tregs within PBMCs", "setting": "[1]; healthy donor PBMCs, 24 hours", "value": "reduced most significantly"}]}]}
